The values that follow come from patent publication US3931198A, “2-Amino-5-spiro substituted oxazoline-4-one compounds” (Abbott Laboratories, priority 1973, dated 1976).

Broadly, the LD50 is the dose at which mortality reaches 50%. Read a high LD50 as a less toxic substance.

A short description of series [1]: LD50, lethal dosage at which 50 percent of the animals expire. As to conditions: mouse, in vivo, ip; mice, intraperitoneal injection unless otherwise indicated. Here is the method: (§1) Table VI below details the activity of the various species of this series along with the dosages utilized expressed in mg/kg of body weight and the lethal dosage at which 50 percent of the animals expire (^LD 50) for each of the compounds. Unless otherwise indicated, the dosage and the ^LD 50 were administered by intraperitoneal injection. It is to be understood, of course, that the particular route of administration is not critical to the manifestation of biological effects.

A further series relates to central nervous system. The experiment in a line: CNS activity (depressant or stimulant) in test mice. As to conditions: i.p. It counts as in vivo. Here is the method: as §1
The next series has as its system rats. The experiment in a line: Learning and retention (escape time, jump out test) after electroconvulsive shock on a modified Cook-Weidley apparatus. As to conditions: for Mean Escape Time, Retention Trial: 1 hour after last acquisition trial. It counts as in vivo. Here is the method: In addition to the foregoing activity, the administration of some of these novel compounds to warm-blooded animals results in an increased rate of learning by the animal coupled with a prolonged period of retention of the learned behavior.
The behavioral effects resulting from the administration of these compounds to rats were evaluated on a modified Cook-Weidley apparatus (L. Cook and E. Weidley, Ann. N.Y. Acad. Sci., 66, 790, 1957). The apparatus consists of a chamber with a grid flooring and an escape platform outside the chamber. The electric shock to the grid floor was controlled by a rheostat mechanism and scrambler. Rats were divided into 2 groups for each test trial. One group was administered saline as the control and the other group the test compound about 1/2 hour prior to electroconvulsive shock. It is known that electroconvulsive shock induces a state of proactive amnesia or an impaired learning rate (Deutsch, J.A., 1962, Ann. Rev. Psychol., 24, 259). Then, 15 minutes after electroconvulsive shock, the rats were given 10 acquisition trials on the jump out test to measure learning rates. Each acquisition trial consisted of 15 seconds in the chamber without any stimulation followed by 10 seconds of buzzer stimulation and culminated by 5 seconds of buzzer-plus-shock stimulation. The time from entrance into the apparatus until the rat jumps out is recorded as the escape time. Retention of the learned behavioral pattern was tested by repeating the test one hour after the last acquisition trial. The test sequence for each trial was terminated upon successful completion of the task, e.g., jumping out of the chamber. EFFECT OF 2-AMINO-8-METHYL-1-OXA-3,8-DIAZASPIRO [4,5]DEC-2-EN-4-ONE INTRAPERITONEAL ADMINISTRATION Mean Escape Time -- Sec. Trial Test Cpd. -- 10 mg/kg Control ______________________________________ 1 29.8 ± 0.3 30.0 ± 0.0 2 29.5 ± 0.5 29.3 ± 0.8 3 13.8 ± 1.7 26.0 ± 2.4 4 12.0 ± 2.1 22.0 ± 3.6 5 7.0 ± 1.6 22.3 ± 3.8 6 7.8 ± 1.5 18.5 ± 1.9 7 6.5 ± 1.6 18.0 ± 2.3 8 7.0 ± 2.2 13.0 ± 2.9 9 10.8 ± 3.0 15.6 ± 2.1 10 9.0 ± 1.2 13.9 ± 1.7 Retention Trial -- 1 hour after last Acquisition Trial: 13.8 ± 1.4 15.8 ± 3.3 EFFECT OF 2-AMINO-7,7,9-TRIMETHYL-1-OXA-3-AZASPIRO [4,5]DEC-2-EN-4-ONE INTRAPERITONEAL ADMINISTRATION Mean Escape Time -- Sec. Trial Test Cpd. 20 mg/kg Control ______________________________________ 1 30.0 ± 0.0 30.0 ± 0.0 2 29.0 ± 0.4 29.5 ± 0.2 3 21.2 ± 3.0 19.7 ± 5.2 4 17.7 ± 5.4 20.2 ± 5.3 5 14.7 ± 1.8 18.0 ± 2.7 6 18.0 ± 3.9 18.5 ± 3.6 7 10.0 ± 2.1 20.2 ± 4.7 8 5.5 ± 1.8 16.5 ± 3.8 9 6.7 ± 2.5 18.7 ± 5.0 10 7.2 ± 2.8 13.7 ± 4.4 Retention Trial -- 1 hour after last Acquisition Trial: 8.0 ± 2.6 20.2 ± 3.3 EFFECT OF 2-AMINO-7,9-DIMETHYL-1-OXA-3-AZASPIRO [4,5]DEC-2-EN-4-ONE ORAL ADMINISTRATION Mean Escape Time -- Sec. Trial Test Cpd. -- 20 mg/kg Control ______________________________________ 1 30.0 ± 0.0 30.0 ± 0.0 2 29.2 ± 0.4 29.7 ± 0.2 3 20.0 ± 4.3 27.2 ± 1.8 4 7.5 ± 2.9 19.7 ± 2.4 5 4.7 ± 0.8 16.0 ± 3.2 6 7.2 ± 2.0 14.7 ± 3.6 7 8.0 ± 1.6 18.7 ± 4.5 8 10.5 ± 3.7 11.0 ± 2.6 9 7.0 ± 1.2 13.0 ± 3.2 10 7.5 ± 2.1 15.5 ± 4.1 Retention Trial -- 1 hour after last Acquisition Trial: 6.7 ± 1.4 15.7 ± 5.0 ______________________________________

With `NC1=NC(=O)C2(CCC3CCCCC3C2)O1` (stereo not drawn) [2'-amino-octahydrospiro[naphthalene-2(1H),5'-[2]oxazolin]-4'-one], in series [1], the LD50 is > 1000 mg/kg. In the series with central nervous system (dose 500 mg/kg), the Activity entry is listed as “depressant”.
With `NC1=NC(=O)C2(CC3CCC2C3)O1` (stereo not drawn) [2'-aminospiro[norbornane-2,5'-[2]oxazolin]-4'-one], the LD50 in series [1] is > 1000 mg/kg. Moreover, the Activity entry in the series on central nervous system (dose 500 mg/kg) was “depressant”.
With `NC1=NC(=O)C2(CCNCC2)O1` [2-amino-1-oxa-3,8-diazaspiro[4,5]dec-2-en-4-one], the LD50 in series [1] was > 1000 mg/kg. In addition, the Activity entry with central nervous system (dose 50 mg/kg) is “depressant”.
Regarding `NC1=NC(=O)C2(CCCC2)O1` [2-amino-1-oxa-3-azaspiro[4,4]non-2-en-4-one], in series [1], the LD50 is > 1000 mg/kg. The Activity entry in the series with central nervous system (dose 500 mg/kg) is on record as “depressant”.
Regarding `NC1=NC(=O)C2(CCCCC2)O1` [2-amino-1-oxa-3-azaspiro[4,5]dec-2-en-4-one], the LD50 in series [1] was > 1000 mg/kg. For the same compound, the Activity entry with central nervous system (dose 200 mg/kg) is “depressant”.
Take `NC1=NC(=O)C2(CCCCCC2)O1` [2-amino-1-oxa-3-azaspiro[4,6]undec-2-en-4-one]: the 50% lethal dose (LD50) in series [1] was > 1000 mg/kg. Moreover, the Activity result in the series with central nervous system (dose 500 mg/kg) is “depressant”.
Turning to `NC1=NC(=O)C2(CCCCCCC2)O1` [2-amino-1-oxa-3-azaspiro[4,7]dodec-2-en-4-one], the LD50 in series [1] is > 1000 mg/kg. Further, the Activity entry with central nervous system (dose 500 mg/kg) is “depressant”.
Turning to `CC1CC(C)(C)CC2(C1)OC(N)=NC2=O` (stereo not drawn) [2-amino-7,7,9-trimethyl-1-oxa-3-azaspiro[4,5]dec-2-en-4-one], the LD50 in series [1] is > 750 mg/kg. Besides, in the series on central nervous system (dose 0.1 mg/kg), the Activity result is given as “stimulant”. For the same compound, the “Mean Escape Time, Retention Trial” value in the series on rats (intraperitoneal, 20 mg/kg) stood at 8.0 ± 2.6 s. Further, the “Mean Escape Time” value in the series with rats (intraperitoneal, 20 mg/kg, acquisition trial 1) is 30.0 ± 0.0 s; with rats (intraperitoneal, 20 mg/kg, acquisition trial 2), 29.0 ± 0.4 s; in the series on rats (intraperitoneal, 20 mg/kg, acquisition trial 3), 21.2 ± 3.0 s; in the series with rats (intraperitoneal, 20 mg/kg, acquisition trial 4), 17.7 ± 5.4 s; with rats (intraperitoneal, 20 mg/kg, acquisition trial 5), 14.7 ± 1.8 s; with rats (intraperitoneal, 20 mg/kg, acquisition trial 6), 18.0 ± 3.9 s. For the same compound, the “Mean Escape Time” value in the series on rats (intraperitoneal, 20 mg/kg, acquisition trial 7) was 10.0 ± 2.1 s; in the series with rats (intraperitoneal, 20 mg/kg, acquisition trial 8) it was 5.5 ± 1.8 s; in the series on rats (intraperitoneal, 20 mg/kg, acquisition trial 9) it was 6.7 ± 2.5 s; with rats (intraperitoneal, 20 mg/kg, acquisition trial 10), 7.2 ± 2.8 s.
Take `CC1CC2(CC(C)N1C)OC(N)=NC2=O` (stereo not drawn) [2-amino-7,8,9-trimethyl-1-oxa-3,8-diazaspiro[4,5]-2-en-4-one]: the LD50 in series [1] was > 500 mg/kg. In the series with central nervous system (dose 20 mg/kg), the Activity entry is recorded as “depressant”.
With `CC1CC2(CC(C)C1C)OC(N)=NC2=O` (stereo not drawn) [2-amino-7,8,9-trimethyl-1-oxa-3-azaspiro[4,5]dec-2-en-4-one], the LD50 in series [1] was > 1000 mg/kg. Further, in the series with central nervous system (dose 200 mg/kg), the Activity result is given as “depressant”.
In the case of `CC1CC(C)CC2(C1)OC(N)=NC2=O` (stereo not drawn) [2-amino-7,9-dimethyl-1-oxa-3-aza-spiro[4,5]dec-2-en-4-one], in series [1], the LD50 was ~300 mg/kg. Also, in the series on central nervous system (dose 1 mg/kg), the Activity result was “stimulant”. In addition, the “Mean Escape Time, Retention Trial” value in the series with rats (oral, 20 mg/kg) is 6.7 ± 1.4 s. Also, the “Mean Escape Time” value with rats (oral, 20 mg/kg, acquisition trial 1) was 30.0 ± 0.0 s; in the series with rats (oral, 20 mg/kg, acquisition trial 2) it was 29.2 ± 0.4 s; in the series on rats (oral, 20 mg/kg, acquisition trial 3) it was 20.0 ± 4.3 s; in the series on rats (oral, 20 mg/kg, acquisition trial 4) it was 7.5 ± 2.9 s; in the series with rats (oral, 20 mg/kg, acquisition trial 5), 4.7 ± 0.8 s; in the series with rats (oral, 20 mg/kg, acquisition trial 6), 7.2 ± 2.0 s. The “Mean Escape Time” value was found to be 8.0 ± 1.6 s in the series with rats (oral, 20 mg/kg, acquisition trial 7); 10.5 ± 3.7 s with rats (oral, 20 mg/kg, acquisition trial 8); 7.0 ± 1.2 s in the series on rats (oral, 20 mg/kg, acquisition trial 9); 7.5 ± 2.1 s in the series on rats (oral, 20 mg/kg, acquisition trial 10).
`CC1CCCC2(C1)OC(N)=NC2=O` (stereo not drawn) [2-amino-7-methyl-1-oxa-3-aza-spiro[4,5]dec-2-en-4-one]: the LD50 in series [1] is ~750 mg/kg. Moreover, the Activity entry in the series with central nervous system (dose 200 mg/kg) is “depressant”.
On the same counts, the results for `NC1=NC(=O)C2(CCN(Cc3ccccc3)CC2)O1` [2-amino-8-benzyl-1-oxa-3,8-diazaspiro[4,5]dec-2-en-4-one] are > 1000 mg/kg and “depressant”.
`CC(C)N1CCC2(CC1)OC(N)=NC2=O` [2-amino-8-isopropyl-1-oxa-3,8-diazaspiro-[4,5]dec-2-en-4-one]: the LD50 in series [1] worked out at 1000 mg/kg. In addition, in the series with central nervous system (dose 100 mg/kg), the Activity entry was “depressant”.
Take `CC1CCC2(CC1)OC(N)=NC2=O` (stereo not drawn) [2-amino-8-methyl-1-oxa-2-aza-spiro[4,5]dec-2-en-4-one]: in series [1], the LD50 was > 1000 mg/kg. In the series with central nervous system (dose 500 mg/kg), the Activity entry was “depressant”.
For the compound `CN1CCC2(CC1)OC(N)=NC2=O` [2-amino-8-methyl-1-oxa-3,8-diazaspiro[4,5]dec-2-en-4-one], the LD50 in series [1] is > 1000 mg/kg. For the same compound, in the series with central nervous system (dose 10 mg/kg), the Activity entry is “stimulant”. Further, the “Mean Escape Time, Retention Trial” value in the series on rats (intraperitoneal, 10 mg/kg) came out at 13.8 ± 1.4 s. Besides, the “Mean Escape Time” value in the series on rats (intraperitoneal, 10 mg/kg, acquisition trial 1) is 29.8 ± 0.3 s; in the series with rats (intraperitoneal, 10 mg/kg, acquisition trial 2), 29.5 ± 0.5 s; with rats (intraperitoneal, 10 mg/kg, acquisition trial 3), 13.8 ± 1.7 s; in the series on rats (intraperitoneal, 10 mg/kg, acquisition trial 4), 12.0 ± 2.1 s; with rats (intraperitoneal, 10 mg/kg, acquisition trial 5), 7.0 ± 1.6 s; with rats (intraperitoneal, 10 mg/kg, acquisition trial 6), 7.8 ± 1.5 s. Also, the “Mean Escape Time” value stood at 6.5 ± 1.6 s in the series on rats (intraperitoneal, 10 mg/kg, acquisition trial 7); 7.0 ± 2.2 s in the series with rats (intraperitoneal, 10 mg/kg, acquisition trial 8); 10.8 ± 3.0 s with rats (intraperitoneal, 10 mg/kg, acquisition trial 9); 9.0 ± 1.2 s with rats (intraperitoneal, 10 mg/kg, acquisition trial 10).
For the compound `NC1=NC(=O)C2(CCN(CCc3ccccc3)CC2)O1` [2-amino-8-phenethyl-1-oxa-3,8-diazaspiro-[4,5]dec-2-en-4-one], the LD50 in series [1] was > 1000 mg/kg. Besides, in the series with central nervous system (dose 200 mg/kg), the Activity entry was “depressant”.
On to `NC1=NC(=O)C2(CCC2)O1` [6-amino-5-oxa-7-azaspiro[3,4]oct-6-en-8-one], for which the LD50 in series [1] is > 500 mg/kg. Also, the Activity result in the series with central nervous system (dose 200 mg/kg) is reported as “depressant”.
